Measured values published in patent publication US20240116946A1 (Gilead Sciences, Inc., priority 2022, published 2024).
Read-outs that look alike come from different tables or passages of the source.

Experiments:
[1] = biological target: recombinant SARS-CoV-2 Main protease (Mpro) (Severe acute respiratory syndrome coronavirus 2 (2019-nCoV) (SARS-CoV-2), UniProt P0DTD1); experiment: Cov Mpro Biochemical IC50 Assay; conditions: read-out: MPro IC50
SARS-CoV-2-NLuc = experiment: microbe, parasite or virus in culture; format: cell-based, SARS Coronavirus 2
[2] = recombinant SARS-CoV-2 Mpro, fluorogenic peptide substrate
[3] = Severe acute respiratory syndrome coronavirus, 48 h, read-out: MPro EC50
[4] = recombinant SARS-CoV-2 Mpro 7.5 nM, fluorogenic peptide substrate 40 μM
[5] = Severe acute respiratory syndrome coronavirus, 48 h; read-out: MPro EC50

SMILES | IC50 [1, 2] [nM] | EC50 (SARS-CoV-2-NLuc; [3]) [nM] | IC50 [1, 4] [nM] | EC50 (SARS-CoV-2-NLuc; read-out: MPro EC50) [nM] | EC50 (SARS-CoV-2-NLuc; [5]) [nM]
O=c1[nH]c2cc(-c3c(Cl)cccc3-c3ccc4c(c3)CCO4)ccc2c(=O)n1-c1cncc2ccccc12 [Example 179] | 195 | 84.8 | – | – | –
Cn1ncc(-c2cccc(Cl)c2-c2ccc3c(=O)n(-c4cncc5ccccc45)c(=O)[nH]c3c2)c1C(F)(F)F [Example 272] | 212 | 39.6 | – | – | –
N#CCn1c(=O)n(-c2cncc3ccccc23)c(=O)c2sc(-c3ccc(F)cc3Cl)cc21 [Example 727] | – | 8.36 | 3.09 | – | –
Cc1nc(COc2cccc(Cl)c2-c2ccc3c(=O)n(-c4cncc5ccccc45)c(=O)[nH]c3c2)co1 [Example 87] | 172 | 203 | – | – | –
CC(=O)NCCn1c(=O)n(-c2cncc3ccccc23)c(=O)c2sc(-c3ccccc3Cl)cc21 [Example 614] | – | – | 35 | 64 | –
O=c1[nH]c2cc(-c3c(Cl)cccc3-c3ccccc3)ccc2c(=O)n1-c1cncc2ccccc12 [Example 103] | 388 | 83.4 | – | – | –
COc1cc(-c2cc3c(s2)c(=O)n(-c2cncc4[nH]c(=O)n(C)c24)c(=O)n3CCC#N)c(Cl)cc1F [Example 687] | – | 148 | 4.92 | – | –
Cc1cc(-c2cccc(Cl)c2-c2ccc3c(=O)n(-c4cncc5ccccc45)c(=O)[nH]c3c2)cc(C)n1 [Example 208] | 7.56 | 4.21 | – | – | –
COc1ccc(C)c(-c2ccc3c(=O)n(-c4cncc5ccccc45)c(=O)[nH]c3c2)c1 [Example 301] | 259 | 173 | – | – | –
COc1cc(-c2cc3[nH]c(=O)n(-c4cncc(C)c4C)c(=O)c3s2)c(Cl)cc1F [Example 747] | – | 4.19 | 4.63 | – | –
O=c1[nH]c2cc(-c3cc(F)c(F)cc3Cl)sc2c(=O)n1-c1cncc2ccccc12 [Example 286] | 34.8 | 60.3 | – | – | –
Cc1c(-c2ccccc2Cl)sc2c(=O)n(-c3cncc4ccccc34)c(=O)[nH]c12 [Example 76] | 2780 | 7400 | – | – | –
COc1ccc(Cl)c(-c2cc3[nH]c(=O)n(-c4cncc5sc(C(N)=O)c(C)c45)c(=O)c3s2)c1 [Example 1048, 4-(6-(2-chloro-5-methoxyphenyl)-2,4-dioxo-1,4-dihydrothieno[3,2-d]pyrimidin-3(2H)-yl)-3-methylthieno[2,3-c]pyridine-2-carboxamide] | – | – | 5.23 | – | 9.86
Cc1cnc(Cl)c(-c2cc3[nH]c(=O)n(-c4cncc5cnn(C)c45)c(=O)c3s2)c1 [Example 669] | – | > 1000 | 336 | – | –
COc1ccc(C#N)c(-c2cc3[nH]c(=O)n(-c4cncc5c4CCCO5)c(=O)c3s2)c1 [Example 598] | – | 150 | 29.6 | – | –
COc1cc(-c2cc3c(s2)c(=O)n(-c2cncc(Cl)c2C)c(=O)n3CCC#N)c(Cl)cc1F (single isomer, unassigned) [Example 1033, 3-[6-(2-chloro-4-fluoro-5-methoxy-phenyl)-3-(5-chloro-4-methyl-3-pyridyl)-2,4-dioxo-thieno[3,2-d]pyrimidin-1-yl]propanenitrile] | – | – | 420 | 488 | –
O=c1[nH]c2cc(-c3ccccc3Cl)sc2c(=O)n1-c1cncc2ccc(N3CCO[C@H](C(F)(F)F)C3)cc12 [Example 417] | – | 160 | 17.8 | – | –
COc1cnc(Cl)c(-c2cc3c(s2)c(=O)n(-c2cncc4ccccc24)c(=O)n3CCC#N)c1 [Example 942] | – | 13.2 | 12 | – | –
O=c1[nH]c2cc(-c3ncco3)sc2c(=O)n1-c1cncc2ccccc12 [Example 166, 3-(isoquinolin-4-yl)-6-(oxazol-2-yl)thieno[3,2-d]pyrimidine-2,4(1H,3H)-dione] | 942 | 4420 | – | – | –
Cn1ncc2cncc(-n3c(=O)c4sc(-c5cc(F)c(F)cc5Cl)cc4n(CCC#N)c3=O)c21 [Example 790, 3-[6-(2-chloro-4,5-difluoro-phenyl)-3-(1-methylpyrazolo[4,3-c]pyridin-7-yl)-2,4-dioxo-thieno[3,2-d]pyrimidin-1-yl]propanenitrile] | – | 14.3 | 12.6 | – | –
COc1cc(-c2cc3c(s2)c(=O)n(-c2cncc4cnn(C)c24)c(=O)n3CCc2nnn[nH]2)c(Cl)cc1F [Example 1002, 6-(2-chloro-4-fluoro-5-methoxy-phenyl)-3-(1-methylpyrazolo[4,3-c]pyridin-7-yl)-1-[2-(1H-tetrazol-5-yl)ethyl]thieno[3,2-d]pyrimidine-2,4-dione] | – | – | 33.8 | 110 | –

SMILES | IC50 [1, 2] [nM] | EC50 (SARS-CoV-2-NLuc; [3]) [nM] | IC50 [1, 4] [nM] | EC50 (SARS-CoV-2-NLuc; read-out: MPro EC50) [nM] | EC50 (SARS-CoV-2-NLuc; [5]) [nM]
COc1cc(Cl)c(-c2ccc3c(=O)n(-c4cncc5ccccc45)c(=O)[nH]c3c2)cc1OC [Example 255] | 307 | 332 | – | – | –
COc1ccc(Cl)c(-c2cc3[nH]c(=O)n(-c4cncc5cnccc45)c(=O)c3s2)c1 [Example 582] | – | 31.7 | 8.83 | – | –
COc1cnc(C#N)c(-c2cc3[nH]c(=O)n(-c4cncc5ccccc45)c(=O)c3s2)c1 [Example 541] | – | 237 | 17.6 | – | –
Cc1ccc(-c2cc3[nH]c(=O)n(-c4cncc5ccccc45)c(=O)c3s2)c(Cl)c1 [Example 339] | 14.8 | 48.2 | – | – | –
Cc1cc(-c2cccc(Cl)c2-c2cc3[nH]c(=O)n(-c4cncc(C5CC5)c4)c(=O)c3s2)cnn1 [Example 615, 6-(2-chloro-6-(6-methylpyridazin-4-yl)phenyl)-3-(5-cyclopropylpyridin-3-yl)thieno[3,2-d]pyrimidine-2,4(1H,3H)-dione] | – | – | 9.85 | – | 140
N#CCCn1c(=O)n(-c2cncc(C#N)c2)c(=O)c2sc(-c3ccccc3Cl)cc21 [Example 1061, 5-(6-(2-chlorophenyl)-1-(2-cyanoethyl)-2,4-dioxo-1,4-dihydrothieno[3,2-d]pyrimidin-3(2H)-yl)nicotinonitrile] | – | – | 5.07 | – | 14.6
Cc1c2c(-n3c(=O)c4sc(-c5ccc(F)cc5Cl)cc4n(CCC#N)c3=O)cncc2nn1C [Example 797, 3-(6-(2-chloro-4-fluorophenyl)-3-(2,3-dimethyl-2H-pyrazolo[3,4-c]pyridin-4-yl)-2,4-dioxo-3,4-dihydrothieno[3,2-d]pyrimidin-1(2H)-yl)propanenitrile] | – | 108 | 34.6 | – | –
COc1cc(-c2cc3[nH]c(=O)n(-c4cncc5ncccc45)c(=O)c3s2)c(Cl)cc1F [Example 737] | – | 74.1 | 17.9 | – | –
COCCn1c(=O)n(-c2cncc3ccccc23)c(=O)c2sc(-c3ccccc3Cl)cc21 [Example 470, 6-(2-chlorophenyl)-3-(4-isoquinolyl)-1-(2-methoxyethyl)thieno[3,2-d]pyrimidine-2,4-dione] | – | 71.3 | 46.8 | – | –
N#CCCn1c(=O)n(-c2cnccn2)c(=O)c2sc(-c3ccccc3C#N)cc21 [Example 830] | – | – | 350 | – | > 1000
COc1cnc(Cl)c(-c2cc3[nH]c(=O)n(-c4cncc5ccccc45)c(=O)c3s2)c1 (single isomer, unassigned) [Example 628, 6-(2-chloro-5-methoxypyridin-3-yl)-3-(isoquinolin-4-yl)thieno[3,2-d]pyrimidine-2,4(1H,3H)-dione] | – | – | 3.26 | 15.9 | –
Cn1ncc2cncc(-n3c(=O)[nH]c4cc(-c5cc(F)ccc5Cl)sc4c3=O)c21 [Example 663] | – | 16.6 | 14.4 | – | –
N#CCCn1c(=O)n(-c2cncc(F)c2)c(=O)c2sc(-c3ccccc3C#N)cc21 [Example 864] | – | – | 53.2 | – | 150
Cc1ccc(C#N)cc1-c1cc2[nH]c(=O)n(-c3cncc4ccccc34)c(=O)c2s1 [Example 546] | – | 164 | 15.4 | – | –
COc1cc(-c2cc3c(s2)c(=O)n(-c2cncc4ccc(Cl)cc24)c(=O)n3CCC#N)c(Cl)cc1F [Example 946] | – | 12.9 | 6.82 | – | –
N#Cc1ncccc1-c1cc2[nH]c(=O)n(-c3cncc4ccccc34)c(=O)c2s1 [Example 538] | – | 826 | 59.8 | – | –
COc1cc(-c2cc3[nH]c(=O)n(-c4cncc5ccsc45)c(=O)c3s2)c(Cl)cc1F [Example 482] | – | 4.44 | < 2.54 | – | –
O=c1[nH]c2cc(-c3c(Cl)cccc3OCc3cccnn3)ccc2c(=O)n1-c1cncc2ccccc12 [Example 302] | 30.3 | 108 | – | – | –
Cn1ncc2cncc(-n3c(=O)[nH]c4cc(-c5c(Cl)cccc5-c5cncc(C#N)c5)sc4c3=O)c21 [Example 677] | – | – | 7.27 | – | 45
COc1cc(-c2cc3c(s2)c(=O)n(-c2cncc4cccnc24)c(=O)n3CC2(C#N)CC2)c(Cl)cc1F [Example 709] | – | 2.09 | 6.21 | – | –
COc1ccc(Cl)c(-c2ccc3c(=O)n(-c4cncc5c(Cl)cccc45)c(=O)[nH]c3c2)c1 [Example 593] | – | 5790 | 38400 | – | –
